Measurements as given in patent US11406633B2, “Dosing schedule of a Wnt inhibitor and an anti-PD-1 antibody molecule in combination” (Novartis AG, priority 2017, dated 2022).
Where two headings read alike, the source gives them in different places.

Experiments:
[1] = animal toxicity studies in rat
Description: (§1) Recently, the secreted glycoproteins R-spondins 1-4 (RSPO1-4) have emerged as important activators of canonical Wnt signaling. RSPOs bind to leucine-rich repeat-containing G-protein-coupled receptors (LGR4-6) and the transmembrane E3 ubiquitin ligases RING finger 43/zinc and RING finger 3 (RNF43/ZNRF3), forming a ternary complex (Chen et al. Genes Dev; 2013, 27, 1345). RNF43/ZNRF3 antagonize Wnt signaling by promoting the turnover of Fz and LRP6 (Hao et al. Nature 2012, 485 (7397), 195-200; Koo et al. Nature, 2012, 488 (7413), 665). Binding of RSPO induces the endocytosis of RNF43/ZNRF3, thereby increasing levels of membrane-bound Fz and LRP6 and enhancing Wnt ligand-mediated signaling. In order to activate signaling within target cells, Wnt proteins must be properly secreted and transported across the extracellular space. Porcupine is a membrane-bound-O-acyltransferase (MBOAT) that adds palmitoyl groups to Wnt proteins (Takada et al. Dev. Cell 2006, 11, 791). Mutations in components of the canonical Wnt pathway such as APC and β-catenin play important roles in the pathogenesis of some malignancies and those genetic lesions affect upstream Wnt pathway regulation. The inhibition of the Wnt pathway signaling was recently associated with several drawbacks such as side effects and dose limiting toxicities. Such drawbacks were limiting the anti-tumor efficacy of Wnt inhibitors. Separately, activation of the Wnt pathway was linked to resistance to immunotherapy and offers a mechanism by which tumors can evade immune detection and decrease clinical benefit to check-point inhibitors (Spranger et al. Nature 2015, 523, 231). For example, the Wnt inhibitor of the present disclosure, namely 2-(2′,3-dimethyl-[2,4′-bipyridin]-5-yl)-N-(5-(pyrazin-2-yl)pyridin-2-yl)acetamide was tested and the levels of pLRP6 and AXIN2qPCR were analyzed in biopsies of skin and tumors.

[2] = dog, in vivo
[3] = clinical study of the Wnt inhibitor: bone events; type: in vivo, human; settings: patients
Description: The Wnt signaling pathway is required for development and survival of osteoblasts (involved in bone formation) and negatively regulates osteoclasts (involved in bone resorption). […] In addition, the short intermittent dosing of Wnt inhibitor was sufficient to result in upregulation of the activated dendritic cells signature. This is relevant because this subtype of dendritic cell is important for recruiting and activating T cells for an anti-tumoral response. Inhibition of the Wnt signaling in cancer treatment improves the response rate to PD-1 inhibition through release of inhibition of dendritic cells and T-cell activation. Overall, the combination of the Wnt inhibitor (i) and an anti-PD-1 antibody molecule, wherein Wnt inhibitor is administered only at the beginning of the treatment cycle for, e.g. 8 or 15 days, can show mutually coordinated effect of both compounds and offer better efficacy and […] safety profile compared to, for example, use of the Wnt inhibitor (i) alone.

[4] = animal toxicity studies in dog; settings: dogs
[5] = test system: tumor-immune microenvironment / WNT pathway (AXIN2); assay: NanoString gene expression of paired tumor biopsies (screening vs on treatment), immune gene signatures fitted against AXIN2 change; type: in vivo, human; settings: for relationship between AXIN2 inhibition and increased expression of the dendritic cell signature (CD103+) / relationship between AXIN2 inhibition and increased expression of the chemokine signature (CD8+ T-cell recruitment): log 2 fold-change screening to on-treatment, 9 paired samples; for relationship between AXIN2 inhibition and increased expression of the dendritic cell signature (CD103+): 15 days of exposure; for relationship between AXIN2 inhibition and increased expression of the chemokine signature (CD8+ T-cell recruitment): about 15 days of exposure
Description: NanoString measures gene expression for a selected panel of up to about 1000 genes. This is executed using uniquely barcoded probes that hybridize directly to target RNAs (ribonucleic acids). The RNA-probe hybrids are then run out on a gel to linearize the barcodes. These barcodes are then counted and then normalized using an internally developed pipeline. […] Tumors were fixed in formalin and embedded in paraffin (FFPE) or directly placed in RNA Later. These samples were transferred to Genoptix where RNA was isolated for real time qPCR analyses of the pharmacodynamics (PD) marker AXIN2. Remnant RNA was transferred to the assay research laboratory (ARL) where gene expression was profiled using (2016) NanoString pan-cancer immune profiling panel as well as a custom design panel of immune-related genes. Gene expression was normalized using methods recommended by NanoString, with the exception that samples were normalized within specific indications (e.g. melanoma or pancreatic cancer samples were normalized separately) and housekeeping genes were selected using the geNorm stability metric [PMID: 12184808]. Certain genes overlapped between both panels, which we used to assess variability and other quality control parameters. […] The count data described herein was normalized according to the methods recommended by NanoString with one exception, namely that the samples were normalized within the specific indications as described herein and approximately 40 housekeeping genes (defined on the NanoString website for their commercially available cancer immune panel, 2016) were used for biological normalization across samples. Gene signatures were used before to probe the data for phenotypic changes in the tumor-immune microenvironment. It has been previously shown that in genetically engineered mice with activated WNT signaling the dendritic cells and T-cells in the tumor microenvironment are inhibited; however, it has not been shown that this effect is reversible. Therefore, our objective was to use gene expression analyses in samples from the patients treated with the Wnt inhibitor to determine the extent to which the inhibitory effects of WNT signaling in the tumor on the proximal immune cells can be reversed by pharmacological inhibition of the WNT pathway. To understand whether the Compound of Formula (I) has effects on the tumor immune microenvironment, we looked at the relationships between immune gene expression and the PD marker AXIN2. By using this marker, we can understand the extent to which the WNT pathway has been inhibited in a given tumor. Instead of focusing on individual genes, we used the geometric average expression of sets of genes (gene signatures) that describe a particular pathway or cellular function. One gene signature is a chemokine signature that is associated with recruitment of CD8+ T-cells [PMID: 19293190] and other signature is associated with activated CD103+ dendritic cells [PMID: 25970248]. Not every subject presented with a strong inhibition of the WNT pathway as evidenced by the fold-changes observed in AXIN2 expression. […] These dendritic cells, when stimulated, function to recruit T-cells to the tumor. Importantly, this observation was made after 15 days of exposure to the Wnt inhibitor, which supported that intermittent dosing of the Compound of Formula (I) could be combined with a checkpoint inhibitor to stimulate an anti-tumor immune response in the context of tumors that previously had lacked immune infiltrate. […] The changes in AXIN2 expression were fitted by linear model to immune signature changes. […] Both are in log 2 scale. A positive value indicates an increase in the average expression of the genes in a given signature or in AXIN2. […] Second, a relationship between interferon gamma (or type II interferon) and AXIN2 inhibition was observed. Interferon gamma is typically expressed by CD8+ T-cells. […]

Wnt pathway = assay: pLRP6 and AXIN2 qPCR levels in biopsies of skin and tumors after treatment; type: in vivo, human; settings: post-treatment skin sample biopsies
Description: as §1, with “Mutations in components of the canonical Wnt pathway such as APC and β-catenin play important roles in the pathogenesis of some malignancies and those genetic lesions affect upstream Wnt pathway regulation. The inhibition of the Wnt pathway signaling was recently associated with several drawbacks such as side effects and dose limiting toxicities. Such drawbacks were limiting the anti-tumor efficacy of Wnt inhibitors. Separately, activation of the Wnt pathway was linked to resistance to immunotherapy and offers a mechanism by which tumors can evade immune detection and decrease clinical benefit to check-point inhibitors (Spranger et al. Nature 2015, 523, 231).” left out

tumor = assay: other single-agent studies: cytotoxic gene signature and tumor efficacy; type: in vivo; settings: alone as a single agent
Description: as §1, with “Mutations in components of the canonical Wnt pathway such as APC and β-catenin play important roles in the pathogenesis of some malignancies and those genetic lesions affect upstream Wnt pathway regulation. The inhibition of the Wnt pathway signaling was recently associated with several drawbacks such as side effects and dose limiting toxicities. Such drawbacks were limiting the anti-tumor efficacy of Wnt inhibitors. Separately, activation of the Wnt pathway was linked to resistance to immunotherapy and offers a mechanism by which tumors can evade immune detection and decrease clinical benefit to check-point inhibitors (Spranger et al. Nature 2015, 523, 231).” left out

[6] = determined within the CPDR001X2101 clinical study; cited from earlier work

Cc1cc(-c2ncc(CC(=O)Nc3ccc(-c4cnccn4)cn3)cc2C)ccn1 [Compound of Formula (I), 2-(2′,3-dimethyl-[2,4′-bipyridin]-5-yl)-N-(5-(pyrazin-2-yl)pyridin-2-yl)acetamide]
trabeculae ([1]; rat studies): decrease in trabeculae
toxicities (organs affected) ([1]; rat, in vivo): toxicities in gastrointestinal (GI) tract, bones and teeth
effects on bone marrow ([1]; rats): secondary effects
toxicities (organs affected) [2]: toxicities in gastrointestinal (GI) tract, bones and teeth
bone fractures [3]: some patients experienced bone fractures
effects on kidneys [4]: secondary effects
surrounding dendritic cell population on pharmacological inhibition of the WNT pathway ([5]; after 15 days of exposure): concomitant stimulation
relationship between AXIN2 inhibition and increased expression of the dendritic cell signature (CD103+) [5]: fairly linear relationship
relationship between AXIN2 inhibition and increased expression of the dendritic cell signature (CD103+) ([5]; listed as Wnt inhibitor (i)): fairly linear relationships
relationship between AXIN2 inhibition and increased expression of the chemokine signature (CD8+ T-cell recruitment) [5]: fairly linear relationship
relationship between AXIN2 inhibition and increased expression of the chemokine signature (CD8+ T-cell recruitment) ([5]; listed as WNT inhibitor (i)): linear relationship
relationship between AXIN2 inhibition and increased expression of the chemokine signature (CD8+ T-cell recruitment) ([5]; listed as Wnt inhibitor (i)): fairly linear relationships
relationship between AXIN2 inhibition and T-regulation (T-reg) signature ([5]; log 2 scale, FIG. 4): modest inverse relationship
relationship between AXIN2 inhibition and mast cell signature ([5]; log 2 scale, FIG. 4): modest inverse relationship
relationship between type I interferon signature and AXIN2 inhibition ([5]; log 2 scale, FIG. 4): weak relationship
immune cell infiltrates in the tumor-immune microenvironment ([5]; patient tumor biopsies): increasing immune cell infiltrates
inhibition of CD103+ dendritic cells ([5]; patient tumor biopsies): alleviating the inhibition of CD103+ dendritic cells
immune signatures in tumors ([5]; patients, Wnt inhibitor alone): changes in immune signatures in tumors
activated dendritic cells signature ([5]; short intermittent dosing): upregulation
level of AXIN2 (qPCR) (Wnt pathway): inhibited
level of pLRP6 (Wnt pathway): inhibited
cytotoxic gene signature (tumor): increased
tumor efficacy (tumor): lack of tumor efficacy

PDR001: anti-PD-1 antibody molecule with VH and VL CDR sequences of BAP049-Clone-E, described in PCT/CN2016/099494
RP2D [6]: dose of 400 mg Q4W is the RP2D determined within the CPDR001X2101
